{"source": "patent US6355799B1", "about": "“Substituted benzene compounds, process for their preparation, and herbicidal and defoliant compositions containing them” (ISK Americas Incorporated, priority 1997, dated 2002)", "type_in_all_cases": "in vivo", "key": {"[1]": {"tested_on": "redroot pigweed (Amaranthus retroflexus, AMARE)", "assay": "Pre-emerge test, greenhouse herbicide activity screening", "details": "pre-emerge, phytotoxicity rating 0-100 at 14 days after application", "method_in_brief": "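Sandy loam pots; pre-emerge: sown 1 d pre-spray, surface-watered after, then bottom-watered. Post-emerge: sown 8–21 d before, 2–3 leaf stage, + 0.25% v/v NIS, bottom-watered. Acetone, 187 l/ha track spray, 15–1000 g ai/ha. 0–100 injury score, day 14.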"}, "[2]": {"tested_on": "barnyardgrass (Echinochloa crus-galli, ECHCG)", "assay": "Pre-emerge test, greenhouse herbicide activity screening", "details": "pre-emerge, phytotoxicity rating 0-100 at 14 days after application", "method_in_brief": "(§1)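 Visual ratings on a 0-100 scale (0 no damage, 100 all plants dead) were taken at 14 days after treatment. Rates of 15-1000 g ai/ha in acetone, 187 l/ha, were sprayed onto soil one day after planting (pre-emerge) or onto 2-3 leaf plants with 0.25% v/v surfactant (post-emerge).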"}, "[3]": {"tested_on": "green foxtail (Setaria viridis, SETVI)", "assay": "Pre-emerge test, greenhouse herbicide activity screening", "details": "pre-emerge, phytotoxicity rating 0-100 at 14 days after application", "method_in_brief": "as §1"}, "[4]": {"tested_on": "ivyleaf morningglory (Ipomoea hederacea, IPOHE)", "assay": "Pre-emerge test, greenhouse herbicide activity screening", "details": "pre-emerge, phytotoxicity rating 0-100 at 14 days after application", "method_in_brief": "as §1"}, "[5]": {"tested_on": "johnsongrass (Sorghum halepense, SORHA)", "assay": "Pre-emerge test, greenhouse herbicide activity screening", "details": "pre-emerge, phytotoxicity rating 0-100 at 14 days after application", "method_in_brief": "as §1"}, "[6]": {"tested_on": "lambsquarters (Chenopodium album, CHEAL)", "assay": "Pre-emerge test, greenhouse herbicide activity screening", "details": "pre-emerge, phytotoxicity rating 0-100 at 14 days after application", "method_in_brief": "as §1"}, "[7]": {"tested_on": "large crabgrass (Digitaria sanguinalis, DIGSA)", "assay": "Pre-emerge test, greenhouse herbicide activity screening", "details": "pre-emerge, phytotoxicity rating 0-100 at 14 days after application", "method_in_brief": "as §1"}, "[8]": {"tested_on": "sicklepod (Cassia obtusifolia, CASOB)", "assay": "Pre-emerge test, greenhouse herbicide activity screening", "details": "pre-emerge, phytotoxicity rating 0-100 at 14 days after application", "method_in_brief": "as §1"}, "[9]": {"tested_on": "velvetleaf (Abutilon theophrasti, ABUTH)", "assay": "Pre-emerge test, greenhouse herbicide activity screening", "details": "pre-emerge, phytotoxicity rating 0-100 at 14 days after application", "method_in_brief": "as §1"}, "[10]": {"tested_on": "field corn (Zea mays L., var. Dekalb 535, CORN)", "assay": "Pre-emerge test, crop safety", "details": "crop damage, pre-emerge, phytotoxicity rating 0-100 at 14 days after application", "method_in_brief": "(§2)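 Fourteen days after spraying, crop and weed injury was graded visually from 0, no effect, to 100, every plant dead. Test substances were dissolved in acetone and applied at 15–1000 g ai/ha with a flat-fan nozzle. Application was either pre-emergence, one day after sowing, or post-emergence at the 2–3 leaf stage.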"}, "[11]": {"tested_on": "upland rice (Oryza sp., var. Tebonnet, RICE)", "assay": "Pre-emerge test, crop safety", "details": "crop damage, pre-emerge, phytotoxicity rating 0-100 at 14 days after application", "method_in_brief": "as §2"}, "[12]": {"tested_on": "barnyardgrass (Echinochloa crus-galli, ECHCG)", "assay": "Post-emerge test, greenhouse herbicide activity screening", "details": "post-emerge, phytotoxicity rating 0-100 at 14 days after application", "method_in_brief": "(§3)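 Each test used a mechanized track sprayer delivering 187 l/ha of acetone solution at 15–1000 g ai/ha. Post-emerge foliage at 2–3 leaves was treated with added 0.25% v/v non-ionic surfactant and bottom-watered only. Injury was assessed on day 14, where 100 means total kill.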"}, "[13]": {"tested_on": "green foxtail (Setaria viridis, SETVI)", "assay": "Post-emerge test, greenhouse herbicide activity screening", "details": "post-emerge, phytotoxicity rating 0-100 at 14 days after application", "method_in_brief": "as §3"}, "[14]": {"tested_on": "ivyleaf morningglory (Ipomoea hederacea, IPOHE)", "assay": "Post-emerge test, greenhouse herbicide activity screening", "details": "post-emerge, phytotoxicity rating 0-100 at 14 days after application", "method_in_brief": "as §3"}, "[15]": {"tested_on": "johnsongrass (Sorghum halepense, SORHA)", "assay": "Post-emerge test, greenhouse herbicide activity screening", "details": "post-emerge, phytotoxicity rating 0-100 at 14 days after application", "method_in_brief": "as §3"}, "[16]": {"tested_on": "lambsquarters (Chenopodium album, CHEAL)", "assay": "Post-emerge test, greenhouse herbicide activity screening", "details": "post-emerge, phytotoxicity rating 0-100 at 14 days after application", "method_in_brief": "as §3"}, "[17]": {"tested_on": "large crabgrass (Digitaria sanguinalis, DIGSA)", "assay": "Post-emerge test, greenhouse herbicide activity screening", "details": "post-emerge, phytotoxicity rating 0-100 at 14 days after application", "method_in_brief": "as §3"}, "[18]": {"tested_on": "redroot pigweed (Amaranthus retroflexus, AMARE)", "assay": "Post-emerge test, greenhouse herbicide activity screening", "details": "post-emerge, phytotoxicity rating 0-100 at 14 days after application", "method_in_brief": "as §3"}, "[19]": {"tested_on": "sicklepod (Cassia obtusifolia, CASOB)", "assay": "Post-emerge test, greenhouse herbicide activity screening", "details": "post-emerge, phytotoxicity rating 0-100 at 14 days after application", "method_in_brief": "as §3"}, "[20]": {"tested_on": "velvetleaf (Abutilon theophrasti, ABUTH)", "assay": "Post-emerge test, greenhouse herbicide activity screening", "details": "post-emerge, phytotoxicity rating 0-100 at 14 days after application", "method_in_brief": "as §3"}, "[21]": {"tested_on": "field corn (Zea mays L., var. Dekalb 535, CORN)", "assay": "Post-emerge test, crop safety", "details": "post-emerge, crop damage rating 0-100 at 14 days after application", "method_in_brief": "as §1"}, "[22]": {"tested_on": "upland rice (Oryza sp., var. Tebonnet, RICE)", "assay": "Post-emerge test, crop safety", "details": "post-emerge, crop damage rating 0-100 at 14 days after application", "method_in_brief": "as §1"}}, "data": [{"molecule": "Cc1c(Cl)cc(F)c(-n2c(=O)cc(C(F)(F)F)n(C)c2=O)c1NC(=O)OCc1ccc([N+](=O)[O-])cc1", "note": "[4-64]", "values": [{"measurement": "Pre-emerge Herbicidal Activity AMARE", "setting": "[1]; rate 63 g ai/ha", "value": 100}, {"measurement": "Pre-emerge Herbicidal Activity AMARE", "setting": "[1]; rate 250 g ai/ha", "value": 100}, {"measurement": "Pre-emerge Herbicidal Activity ECHCG", "setting": "[2]; rate 63 g ai/ha", "value": 30}, {"measurement": "Pre-emerge Herbicidal Activity ECHCG", "setting": "[2]; rate 250 g ai/ha", "value": 70}, {"measurement": "Pre-emerge Herbicidal Activity SETVI", "setting": "[3]; rate 63 g ai/ha", "value": 100}, {"measurement": "Pre-emerge Herbicidal Activity SETVI", "setting": "[3]; rate 250 g ai/ha", "value": 100}, {"measurement": "Pre-emerge Herbicidal Activity IPOHE", "setting": "[4]; rate 63 g ai/ha", "value": 40}, {"measurement": "Pre-emerge Herbicidal Activity IPOHE", "setting": "[4]; rate 250 g ai/ha", "value": 70}, {"measurement": "Pre-emerge Herbicidal Activity SORHA", "setting": "[5]; rate 63 g ai/ha", "value": 40}, {"measurement": "Pre-emerge Herbicidal Activity SORHA", "setting": "[5]; rate 250 g ai/ha", "value": 80}, {"measurement": "Pre-emerge Herbicidal Activity CHEAL", "setting": "[6]; rate 63 g ai/ha", "value": 100}, {"measurement": "Pre-emerge Herbicidal Activity CHEAL", "setting": "[6]; rate 250 g ai/ha", "value": 100}, {"measurement": "Pre-emerge Herbicidal Activity DIGSA", "setting": "[7]; rate 63 g ai/ha", "value": 100}, {"measurement": "Pre-emerge Herbicidal Activity DIGSA", "setting": "[7]; rate 250 g ai/ha", "value": 100}, {"measurement": "Pre-emerge Herbicidal Activity CASOB", "setting": "[8]; rate 63 g ai/ha", "value": 20}, {"measurement": "Pre-emerge Herbicidal Activity CASOB", "setting": "[8]; rate 250 g ai/ha", "value": 90}, {"measurement": "Pre-emerge Herbicidal Activity ABUTH", "setting": "[9]; rate 63 g ai/ha", "value": 100}, {"measurement": "Pre-emerge Herbicidal Activity ABUTH", "setting": "[9]; rate 250 g ai/ha", "value": 100}, {"measurement": "Pre-emerge Herbicidal Activity CORN", "setting": "[10]; rate 63 g ai/ha", "value": 0}, {"measurement": "Pre-emerge Herbicidal Activity CORN", "setting": "[10]; rate 250 g ai/ha", "value": 45}, {"measurement": "Pre-emerge Herbicidal Activity RICE", "setting": "[11]; rate 63 g ai/ha", "value": 30}, {"measurement": "Pre-emerge Herbicidal Activity RICE", "setting": "[11]; rate 250 g ai/ha", "value": 80}, {"measurement": "Post-emerge Herbicidal Activity ECHCG", "setting": "[12]; 63 g ai/ha", "value": 20}, {"measurement": "Post-emerge Herbicidal Activity ECHCG", "setting": "[12]; 250 g ai/ha", "value": 30}, {"measurement": "Post-emerge Herbicidal Activity SETVI", "setting": "[13]; 63 g ai/ha", "value": 50}, {"measurement": "Post-emerge Herbicidal Activity SETVI", "setting": "[13]; 250 g ai/ha", "value": 80}, {"measurement": "Post-emerge Herbicidal Activity IPOHE", "setting": "[14]; 63 g ai/ha", "value": 100}, {"measurement": "Post-emerge Herbicidal Activity IPOHE", "setting": "[14]; 250 g ai/ha", "value": 100}, {"measurement": "Post-emerge Herbicidal Activity SORHA", "setting": "[15]; 63 g ai/ha", "value": 10}, {"measurement": "Post-emerge Herbicidal Activity SORHA", "setting": "[15]; 250 g ai/ha", "value": 30}, {"measurement": "Post-emerge Herbicidal Activity CHEAL", "setting": "[16]; 63 g ai/ha", "value": 100}, {"measurement": "Post-emerge Herbicidal Activity CHEAL", "setting": "[16]; 250 g ai/ha", "value": 100}, {"measurement": "Post-emerge Herbicidal Activity DIGSA", "setting": "[17]; 63 g ai/ha", "value": 10}, {"measurement": "Post-emerge Herbicidal Activity DIGSA", "setting": "[17]; 250 g ai/ha", "value": 30}, {"measurement": "Post-emerge Herbicidal Activity AMARE", "setting": "[18]; 63 g ai/ha", "value": 100}, {"measurement": "Post-emerge Herbicidal Activity AMARE", "setting": "[18]; 250 g ai/ha", "value": 100}, {"measurement": "Post-emerge Herbicidal Activity CASOB", "setting": "[19]; 63 g ai/ha", "value": 60}, {"measurement": "Post-emerge Herbicidal Activity CASOB", "setting": "[19]; 250 g ai/ha", "value": 100}, {"measurement": "Post-emerge Herbicidal Activity ABUTH", "setting": "[20]; 63 g ai/ha", "value": 100}, {"measurement": "Post-emerge Herbicidal Activity ABUTH", "setting": "[20]; 250 g ai/ha", "value": 100}, {"measurement": "Post-emerge Herbicidal Activity CORN", "setting": "[21]; 63 g ai/ha", "value": 30}, {"measurement": "Post-emerge Herbicidal Activity CORN", "setting": "[21]; 250 g ai/ha", "value": 40}, {"measurement": "Post-emerge Herbicidal Activity RICE", "setting": "[22]; 63 g ai/ha", "value": 15}, {"measurement": "Post-emerge Herbicidal Activity RICE", "setting": "[22]; 250 g ai/ha", "value": 50}]}]}
